pIC50: −log10 of the molar value. ≈ marks a conversion by molar mass, not a printed value. Values belong to the compound of their own block, whether it stands above or below them.
Experiments:
[1] = target: hERG (KCNH2) (Homo sapiens, UniProt Q12809); assay: Inhibition of hERG expressed in CHO cells at 3 uM at -80 mV holding potential assessed as current block incubated for 3 mins by Qpatch clamp method relative to control
[2] = Solubility of the compound in FeSSIF; settings: simulated gi fluid
[3] = in vivo; settings: Wistar, rat, po, 2 mg/kg
[4] = target: T1, C-X-C chemokine receptor type 3 (Homo sapiens, UniProt P49682); assay: Antagonist activity at human recombinant CXCR3 in human venous blood assessed as receptor internalization measured for 30 mins in presence of CXCL10 by flow cytometric analysis
T1 sequence (P49682 whole entry): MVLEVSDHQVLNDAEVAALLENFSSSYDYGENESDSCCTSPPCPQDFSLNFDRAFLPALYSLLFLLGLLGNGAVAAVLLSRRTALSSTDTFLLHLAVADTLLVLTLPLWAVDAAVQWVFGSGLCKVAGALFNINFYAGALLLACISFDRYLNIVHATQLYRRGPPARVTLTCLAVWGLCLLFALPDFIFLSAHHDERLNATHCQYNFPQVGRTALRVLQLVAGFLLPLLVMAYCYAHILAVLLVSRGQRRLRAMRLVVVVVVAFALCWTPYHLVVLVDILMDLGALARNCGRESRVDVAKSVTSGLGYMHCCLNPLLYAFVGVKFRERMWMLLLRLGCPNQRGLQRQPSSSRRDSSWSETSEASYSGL

[5] = in vitro; settings: human
[6] = in vitro; settings: rat
[7] = in vivo; settings: Wistar, rat, po, 2 mg/kg; remark: listed apart in the source
[8] = Half life in Wistar rat at 0.2 mg/kg, iv; settings: in vivo
[9] = target: T1, C-X-C chemokine receptor type 3; assay: Antagonist activity at human recombinant CXCR3 expressed in CHO-K1 cells measured after 10 mins in presence of CXCL10 by FLIPR analysis
[10] = in vivo; settings: Wistar, rat, po, 2 mg/kg; remark: listed apart in the source
[11] = Clearance in Wistar rat at 2 mg/kg, po; settings: in vivo
[12] = Unbound fraction in rat plasma by equilibrium based LC-MS/MS analysis
[13] = Solubility of the compound in FaSSIF; settings: simulated gi fluid
[14] = in vitro; settings: mouse
[15] = target: Voltage-gated inwardly rectifying potassium channel KCNH2 (Homo sapiens, UniProt Q12809); assay: Inhibition of hERG by Qpatch-clamp method
[16] = Unbound fraction in human plasma by equilibrium based LC-MS/MS analysis
[17] = Half life in Balb/c mouse at 1 mg/kg, iv; settings: in vivo
[18] = Unbound fraction in mouse plasma by equilibrium based LC-MS/MS analysis
[19] = Clearance in Balb/c mouse at 10 mg/kg, po; settings: in vivo
[20] = Lipophilicity, log D of the compound at pH 7.4; settings: buffer
[21] = in vivo; settings: Balb/c, mouse, po, 10 mg/kg
[22] = Clearance in dog relative to liver blood flow; format: ADME, Canis lupus familiaris; settings: in vivo
[23] = Cardiotoxicity in guinea pig assessed as QTc prolongation at 10 mg/kg, iv measured for 20 mins; format: toxicity, organism-based, Cavia porcellus; settings: in vivo
[24] = Toxicity in rat plasma assessed as increase in direct bilirubin level at 300 mg/kg/day measured for 2 weeks; format: organism-based; settings: in vivo, 336 h
[25] = in vivo; settings: Balb/c, mouse, po, 10 mg/kg; remark: listed apart in the source
[26] = Mutagenicity in Salmonella typhimurium by Ames test; format: toxicity; settings: salmonella enterica subsp. enterica serovar typhimurium
[27] = Free maximum concentration of drug in cynomolgus monkey at 300 mg/kg/day measured on day 7; format: ADME, organism-based, Macaca fascicularis; settings: in vivo
[28] = Cmax in rat plasma at 300 mg/kg/day measured on day 14; format: ADME, organism-based; design: dose 300 mg/kg/day
[29] = Drug concentration in LPS-induced C57BL/6 mouse plasma at 30 mg/kg, po bid; format: ADME, organism-based; settings: in vivo
[30] = Toxicity in rat plasma assessed as increase in total bilirubin level at 300 mg/kg/day measured for 2 weeks; format: organism-based; settings: in vivo, 336 h
[31] = Unbound fraction in human liver; format: ADME, tissue-based
[32] = Volume of distribution in rat; format: ADME; settings: in vivo
[33] = Clearance in rat relative to liver blood flow; format: ADME; settings: in vivo
[34] = Drug concentration in LPS-induced C57BL/6 mouse plasma at 200 mg/kg, po bid; format: ADME, organism-based; settings: in vivo
[35] = Oral bioavailability in rat; format: ADME, organism-based; settings: in vivo
[36] = Toxicity in cynomolgus monkey assessed as increase in direct bilirubin level at 300 mg/kg/day measured for 7 days; format: organism-based, Macaca fascicularis; settings: in vivo, time 7 day
[37] = in vivo; settings: Balb/c, mouse, po, 10 mg/kg; remark: listed apart in the source
[38] = Half life in Wistar rat at 0.5 mg/kg, iv; settings: in vivo
[39] = Drug concentration in LPS-induced C57BL/6 mouse plasma at 100 mg/kg, po bid; format: ADME, organism-based; settings: in vivo
[40] = test system: Hepatocyte; assay: Cytotoxicity in human hepatocyte measured up to 100 uM; format: toxicity, cell-based; settings: hepatocytes
[41] = Toxicity in rat plasma assessed as increase in indirect bilirubin level at 300 mg/kg/day measured for 2 weeks; format: organism-based; settings: in vivo, 336 h
[42] = Toxicity in cynomolgus monkey assessed as increase in indirect bilirubin level at 300 mg/kg/day measured for 7 days; format: organism-based, Macaca fascicularis; settings: in vivo, time 7 day
[43] = Toxicity in […] assessed as histopathological changes in liver at 300 mg/kg/day measured for 2 weeks; format: organism-based; settings: in vivo, 336 h
[44] = Toxicity in cynomolgus monkey assessed as increase in total bilirubin level at 300 mg/kg/day measured for 7 days; format: organism-based, Macaca fascicularis; settings: in vivo, time 7 day
[45] = target: 5-hydroxytryptamine receptor 2A (Homo sapiens, UniProt P28223); assay: Antagonist activity at 5-HT2A receptor (unknown origin)
[46] = target: cGMP-specific 3',5'-cyclic phosphodiesterase (Homo sapiens, UniProt O76074); assay: Antagonist activity at PDE5 (unknown origin)
[47] = Oral bioavailability in dog; format: ADME, organism-based, Canis lupus familiaris; settings: in vivo
[48] = Volume of distribution at steady state in Wistar rat at 2 mg/kg, po; settings: in vivo
[49] = Unbound fraction in dog liver; format: ADME, tissue-based, Canis lupus familiaris
[50] = Volume of distribution in dog; format: ADME, Canis lupus familiaris; settings: in vivo
[51] = Unbound fraction in rat liver; format: ADME, tissue-based

hERG (KCNH2), sequence (Q12809 whole entry): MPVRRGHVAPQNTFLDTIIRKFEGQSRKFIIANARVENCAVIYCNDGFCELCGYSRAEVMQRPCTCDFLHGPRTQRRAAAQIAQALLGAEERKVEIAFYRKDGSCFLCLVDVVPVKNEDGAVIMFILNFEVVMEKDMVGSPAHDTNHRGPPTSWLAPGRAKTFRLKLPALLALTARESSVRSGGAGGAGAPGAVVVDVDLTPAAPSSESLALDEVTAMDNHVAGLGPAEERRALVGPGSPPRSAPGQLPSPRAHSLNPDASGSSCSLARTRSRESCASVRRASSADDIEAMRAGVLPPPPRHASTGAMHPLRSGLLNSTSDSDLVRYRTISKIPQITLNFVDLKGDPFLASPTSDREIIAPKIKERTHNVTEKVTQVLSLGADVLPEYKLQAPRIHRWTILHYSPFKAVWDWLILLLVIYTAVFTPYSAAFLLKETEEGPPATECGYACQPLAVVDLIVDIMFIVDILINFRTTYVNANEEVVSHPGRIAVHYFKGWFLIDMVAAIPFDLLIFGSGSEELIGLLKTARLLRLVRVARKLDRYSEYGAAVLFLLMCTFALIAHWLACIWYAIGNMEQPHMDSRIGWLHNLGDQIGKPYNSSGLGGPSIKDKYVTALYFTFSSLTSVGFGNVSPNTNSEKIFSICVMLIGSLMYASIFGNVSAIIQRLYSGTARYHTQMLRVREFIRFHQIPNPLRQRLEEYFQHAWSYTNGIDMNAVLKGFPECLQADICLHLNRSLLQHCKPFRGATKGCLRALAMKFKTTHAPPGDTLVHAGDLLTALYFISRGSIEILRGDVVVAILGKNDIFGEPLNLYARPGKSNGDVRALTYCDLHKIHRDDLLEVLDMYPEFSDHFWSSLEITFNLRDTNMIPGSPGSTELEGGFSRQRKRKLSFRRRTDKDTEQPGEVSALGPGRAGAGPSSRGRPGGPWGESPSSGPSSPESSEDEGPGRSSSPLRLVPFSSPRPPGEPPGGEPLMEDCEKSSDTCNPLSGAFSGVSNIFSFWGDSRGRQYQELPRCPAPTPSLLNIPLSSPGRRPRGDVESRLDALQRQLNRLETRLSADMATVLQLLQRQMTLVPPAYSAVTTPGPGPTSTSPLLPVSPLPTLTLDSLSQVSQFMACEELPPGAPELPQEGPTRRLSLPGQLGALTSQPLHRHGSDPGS
Voltage-gated inwardly rectifying potassium channel KCNH2, sequence (Q12809 whole entry): as above
5-hydroxytryptamine receptor 2A, sequence (P28223 whole entry): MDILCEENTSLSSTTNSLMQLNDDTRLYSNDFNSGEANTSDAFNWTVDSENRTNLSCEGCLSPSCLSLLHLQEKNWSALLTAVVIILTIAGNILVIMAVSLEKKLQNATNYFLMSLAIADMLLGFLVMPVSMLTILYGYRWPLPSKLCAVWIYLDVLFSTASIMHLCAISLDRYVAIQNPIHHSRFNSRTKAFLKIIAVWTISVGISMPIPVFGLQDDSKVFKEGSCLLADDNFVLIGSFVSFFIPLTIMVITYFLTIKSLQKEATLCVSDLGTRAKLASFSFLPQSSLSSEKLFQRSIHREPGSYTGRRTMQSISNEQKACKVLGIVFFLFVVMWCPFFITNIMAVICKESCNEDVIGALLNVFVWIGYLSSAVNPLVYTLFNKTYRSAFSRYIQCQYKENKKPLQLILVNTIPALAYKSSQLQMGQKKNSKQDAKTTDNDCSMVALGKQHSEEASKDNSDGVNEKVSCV

solubility [2]: 731 µg/mL (≈ 1250 µM)
Tmax [3]: 30 min
pIC50 [4]: 6.84
microsomal CLint at 0.25 h, 1 µM ([5]; microsomes): 30 µL/min/mg
microsomal CLint at 0.25 h, 1 µM ([6]; microsomes): 53 µL/min/mg
AUC [7]: 196 ng·h/mL
half-life [8]: 30 min
pIC50 [9]: 8.49
bioavailability [10]: 29%
CL/F [11]: 49 mL/min/kg
fraction unbound [12]: 0.042
SMILES: COc1cc2nc(-c3nc(C(F)(F)F)sc3N3CCN(C(=O)Cn4cnc5cccnc54)[C@H](C)C3)[nH]c2cc1OC
inhibition at 0.05 h, 3 µM [1]: 20%

solubility [13]: 13 µg/mL (≈ 24.7 µM)
microsomal CLint at 0.25 h, 1 µM ([14]; microsomes): 104 µL/min/mg
solubility [2]: 214 µg/mL (≈ 406 µM)
fraction unbound [16]: 0.023
microsomal CLint at 0.25 h, 1 µM ([5]; microsomes): 89 µL/min/mg
half-life [17]: 13.2 min
microsomal CLint at 0.25 h, 1 µM ([6]; microsomes): 104 µL/min/mg
fraction unbound [18]: 0.01
CL/F [19]: 41 mL/min/kg
fraction unbound [12]: 0.017
logD [20]: 3.9
Cmax [21]: 27900 ng/mL
SMILES: C[C@@H]1CN(c2sc(C(F)(F)F)nc2-c2nc3ccccc3[nH]2)CCN1C(=O)Cn1cnc2cccnc21
inhibition at 0.05 h, 3 µM [1]: 70%
pIC50 [15]: 5.85

microsomal CLint at 0.25 h, 1 µM ([14]; liver microsomes): 21 µL/min/mg
Tmax [3]: 15 min
CLH [22]: 11%
Tmax [25]: 15 min
pIC50 [4]: 6.62
fCmax [27]: 1.4 µM
microsomal CLint at 0.25 h, 1 µM ([5]; liver microsomes): < 10 µL/min/mg
Cmax [28]: 3.5 µM
Cp [29]: 30 ng/mL
microsomal CLint at 0.25 h, 1 µM ([6]; liver microsomes): 47 µL/min/mg
fraction unbound [31]: 0.038
Vd [32]: 1.1 L/kg
fraction unbound [18]: 0.024
CLH [33]: 10%
Cp [34]: 14630 ng/mL
bioavailability [35]: 48%
AUC [7]: 1160 ng·h/mL
AUC [37]: 6600 ng·h/mL
pIC50 [9]: 8.60
half-life [38]: 72 min
Cp [39]: 250 ng/mL
bioavailability [10]: 0.5%
CL/F [11]: 14 mL/min/kg
fraction unbound [12]: 0.029
pIC50 [45]: 4.80
pIC50 [46]: 5.06
bioavailability [47]: 57%
Vdss [48]: 1 L/kg
fraction unbound [49]: 0.106
Cmax [21]: 3140 ng/mL
Vd [50]: 2.2 L/kg
fraction unbound [51]: 0.029
SMILES: Cc1nc(C)n(CC(=O)N2CCN(c3sc(C(F)(F)F)nc3-c3nc4ccc(-c5noc(C)n5)cc4[nH]3)C[C@H]2C)n1
Activity [23]: Non-Toxic
Activity [24]: Toxic
Activity [26]: Non-Toxic
Activity [30]: Toxic
Activity [36]: Toxic
Activity [40]: Non-Toxic
Activity [41]: Toxic
Activity [42]: Toxic
Activity [43]: Non-Toxic
Activity [44]: Toxic

From ChEMBL document CHEMBL5126609, “Design, Synthesis, and Pharmacological Evaluation of Benzimidazolo-thiazoles as Potent CXCR3 Antagonists with Therapeutic Potential in Autoimmune Diseases: Discovery of ACT-672125” (J Med Chem, 2022)
